Values after ≈ are worked out from the molar mass of the structure shown.

One assay concerns Proteus vulgaris. As to the kind of experiment: Antibacterial activity against Proteus vulgaris NCIM 2813 by microdilution method. It counts as functional.
Regarding `COc1cccc(C2=NN(c3ccccc3)C(c3ccc(SC)cc3)C2)c1` (stereo not drawn), the minimum inhibitory concentration (MIC) came out at 334 µM (≈ 125 µg/mL).

In turn, `CSc1ccc(C2CC(c3ccccc3Cl)=NN2c2ccccc2)cc1` (stereo not drawn) displayed a minimum inhibitory concentration (MIC) of 330 µM (≈ 125 µg/mL).

As to `CSc1ccc(C2CC(c3cccc([N+](=O)[O-])c3)=NN2c2ccccc2)cc1` (stereo not drawn), it took 321 µM (≈ 125 µg/mL) to inhibit growth (MIC).

`CSc1ccc(C2CC(c3ccc(F)cc3)=NN2c2ccccc2)cc1` (stereo not drawn): the MIC was 345 µM (≈ 125 µg/mL).

The subject of another assay is Fusarium proliferatum. As to the kind of experiment: Antifungal activity against Fusarium proliferatum NCIM 1105 assessed as fungal growth inhibition at 2 mg/ml by microdilution method. It counts as functional.
As to `COc1cccc(C2=NN(c3ccccc3)C(c3ccc(SC)cc3)C2)c1` (stereo not drawn), the inhibition at 2000 µg/mL was 96.1%.

Regarding `CSc1ccc(C2CC(c3ccccc3Cl)=NN2c2ccccc2)cc1` (stereo not drawn), the inhibition at 2000 µg/mL was found to be 93.6%.

On to `CSc1ccc(C2CC(c3cccc([N+](=O)[O-])c3)=NN2c2ccccc2)cc1` (stereo not drawn), for which the inhibition at 2000 µg/mL was 56.9%.

For `CSc1ccc(C2CC(c3ccc(F)cc3)=NN2c2ccccc2)cc1` (stereo not drawn), the inhibition at 2000 µg/mL is 98.7%.

The subject of another assay is Mycobacterium tuberculosis. The assay is described as follows: Antimycobacterial activity against Mycobacterium tuberculosis H37Rv assessed as reduction in relative light units at 100 ug/ml after 72 hrs by luciferase reporter phage assay. It counts as functional. Also on record: scale not given: the % may be the effect or the level left. (Reporter assays use an easily measured gene product as a stand-in for the process of interest.)
For the molecule `COc1cccc(C2=NN(c3ccccc3)C(c3ccc(SC)cc3)C2)c1` (stereo not drawn), the Activity is on record as 26.85%.

For the molecule `CSc1ccc(C2CC(c3ccccc3Cl)=NN2c2ccccc2)cc1` (stereo not drawn), the Activity is reported as 0%.

Regarding `CSc1ccc(C2CC(c3cccc([N+](=O)[O-])c3)=NN2c2ccccc2)cc1` (stereo not drawn), the Activity was found to be 5.7%.

In the case of `CSc1ccc(C2CC(c3ccc(F)cc3)=NN2c2ccccc2)cc1` (stereo not drawn), the Activity was 4.75%.

Another assay concerns Escherichia coli. The assay is described as follows: Antibacterial activity against Escherichia coli NCIM 2931 by microdilution method. It counts as functional. In general terms: Broth dilution looks for growth in wells or tubes with falling amounts of substance.
`COc1cccc(C2=NN(c3ccccc3)C(c3ccc(SC)cc3)C2)c1` (stereo not drawn) registered a minimum inhibitory concentration (MIC) of 167 µM (≈ 62.5 µg/mL).

Turning to `CSc1ccc(C2CC(c3ccccc3Cl)=NN2c2ccccc2)cc1` (stereo not drawn), the minimum inhibitory concentration (MIC) was 165 µM (≈ 62.5 µg/mL).

As for `CSc1ccc(C2CC(c3cccc([N+](=O)[O-])c3)=NN2c2ccccc2)cc1` (stereo not drawn), the minimal inhibitory concentration (MIC) came to 160 µM (≈ 62.3 µg/mL).

`CSc1ccc(C2CC(c3ccc(F)cc3)=NN2c2ccccc2)cc1` (stereo not drawn): the lowest concentration to inhibit growth (MIC) was 22 µM (≈ 7.97 µg/mL).

In another assay the test system is Salmonella enterica. As to the kind of experiment: Antibacterial activity against Salmonella typhi NCIM 2501 by microdilution method. Format: functional, Salmonella enterica subsp. enterica serovar Typhi.
In turn, `COc1cccc(C2=NN(c3ccccc3)C(c3ccc(SC)cc3)C2)c1` (stereo not drawn) showed an MIC of 0.334 µM (≈ 0.125 µg/mL).

`CSc1ccc(C2CC(c3ccccc3Cl)=NN2c2ccccc2)cc1` (stereo not drawn) registered a minimal inhibitory concentration (MIC) of 0.33 µM (≈ 0.125 µg/mL).

Regarding `CSc1ccc(C2CC(c3cccc([N+](=O)[O-])c3)=NN2c2ccccc2)cc1` (stereo not drawn), the MIC worked out at 0.321 µM (≈ 0.125 µg/mL).

On to `CSc1ccc(C2CC(c3ccc(F)cc3)=NN2c2ccccc2)cc1` (stereo not drawn), for which inhibition of growth (MIC) required 0.69 µM (≈ 0.25 µg/mL).

Another assay deals with Aspergillus niger. As to the kind of experiment: Antifungal activity against Aspergillus niger NCIM 596 assessed as fungal growth inhibition at 2 mg/ml by microdilution method. Format: functional.
`COc1cccc(C2=NN(c3ccccc3)C(c3ccc(SC)cc3)C2)c1` (stereo not drawn): the inhibition at 2000 µg/mL was 90.1%.

Consider `CSc1ccc(C2CC(c3ccccc3Cl)=NN2c2ccccc2)cc1` (stereo not drawn), for which the inhibition at 2000 µg/mL came out at 98.3%.

For the molecule `CSc1ccc(C2CC(c3cccc([N+](=O)[O-])c3)=NN2c2ccccc2)cc1` (stereo not drawn), the inhibition at 2000 µg/mL is 65.2%.

As for `CSc1ccc(C2CC(c3ccc(F)cc3)=NN2c2ccccc2)cc1` (stereo not drawn), the inhibition at 2000 µg/mL came to 97.3%.

A further assay deals with Bacillus subtilis. As to the kind of experiment: Antibacterial activity against Bacillus subtilis NCIM 2718 by microdilution method. It counts as functional.
The molecule `COc1cccc(C2=NN(c3ccccc3)C(c3ccc(SC)cc3)C2)c1` (stereo not drawn) yielded an MIC of 334 µM (≈ 125 µg/mL).

`CSc1ccc(C2CC(c3ccccc3Cl)=NN2c2ccccc2)cc1` (stereo not drawn) yielded a minimal inhibitory concentration (MIC) of 330 µM (≈ 125 µg/mL).

On to `CSc1ccc(C2CC(c3cccc([N+](=O)[O-])c3)=NN2c2ccccc2)cc1` (stereo not drawn), for which it took 321 µM (≈ 125 µg/mL) to inhibit growth (MIC).

`CSc1ccc(C2CC(c3ccc(F)cc3)=NN2c2ccccc2)cc1` (stereo not drawn) returned an MIC of 172 µM (≈ 62.3 µg/mL).

Another assay concerns Staphylococcus aureus. As to the kind of experiment: Antibacterial activity against Staphylococcus aureus NCIM 5021 by microdilution method. Format: functional.
`COc1cccc(C2=NN(c3ccccc3)C(c3ccc(SC)cc3)C2)c1` (stereo not drawn) registered an MIC of 668 µM (≈ 250 µg/mL).

For the molecule `CSc1ccc(C2CC(c3ccccc3Cl)=NN2c2ccccc2)cc1` (stereo not drawn), the minimal inhibitory concentration (MIC) turned out to be 330 µM (≈ 125 µg/mL).

In turn, `CSc1ccc(C2CC(c3cccc([N+](=O)[O-])c3)=NN2c2ccccc2)cc1` (stereo not drawn) returned an MIC of 642 µM (≈ 250 µg/mL).

For `CSc1ccc(C2CC(c3ccc(F)cc3)=NN2c2ccccc2)cc1` (stereo not drawn), the MIC was found to be 690 µM (≈ 250 µg/mL).

A further assay relates to Klebsiella aerogenes. The assay is described as follows: Antibacterial activity against Enterobacter aerogenes NCIM 5139 by microdilution method. It counts as functional.
For the molecule `COc1cccc(C2=NN(c3ccccc3)C(c3ccc(SC)cc3)C2)c1` (stereo not drawn), the MIC was 334 µM (≈ 125 µg/mL).

`CSc1ccc(C2CC(c3ccccc3Cl)=NN2c2ccccc2)cc1` (stereo not drawn) had a minimal inhibitory concentration (MIC) of 165 µM (≈ 62.5 µg/mL).

Consider `CSc1ccc(C2CC(c3cccc([N+](=O)[O-])c3)=NN2c2ccccc2)cc1` (stereo not drawn), for which the minimal inhibitory concentration (MIC) is 321 µM (≈ 125 µg/mL).

For the molecule `CSc1ccc(C2CC(c3ccc(F)cc3)=NN2c2ccccc2)cc1` (stereo not drawn), inhibition of growth (MIC) required 345 µM (≈ 125 µg/mL).

The next assay relates to Candida tropicalis. The assay is described as follows: Antifungal activity against Candida tropicalis NCIM 3556 assessed as fungal growth inhibition at 2 mg/ml by microdilution method. It counts as functional.
Regarding `COc1cccc(C2=NN(c3ccccc3)C(c3ccc(SC)cc3)C2)c1` (stereo not drawn), the inhibition at 2000 µg/mL came out at 98.7%.

On to `CSc1ccc(C2CC(c3ccccc3Cl)=NN2c2ccccc2)cc1` (stereo not drawn), for which the inhibition at 2000 µg/mL was 91%.

`CSc1ccc(C2CC(c3cccc([N+](=O)[O-])c3)=NN2c2ccccc2)cc1` (stereo not drawn): the inhibition at 2000 µg/mL stood at 45.9%.

For `CSc1ccc(C2CC(c3ccc(F)cc3)=NN2c2ccccc2)cc1` (stereo not drawn), the inhibition at 2000 µg/mL turned out to be 97.4%.

Another assay deals with Mycobacterium tuberculosis. As to the kind of experiment: Antimycobacterial activity against Mycobacterium tuberculosis H37Rv assessed as reduction in relative light units at 50 ug/ml after 72 hrs by luciferase reporter phage assay. Format: functional. Also noted: scale not given: the % may be the effect or the level left.
In the case of `COc1cccc(C2=NN(c3ccccc3)C(c3ccc(SC)cc3)C2)c1` (stereo not drawn), the Activity came to 7.45%.

`CSc1ccc(C2CC(c3ccccc3Cl)=NN2c2ccccc2)cc1` (stereo not drawn): the Activity amounted to 0%.

Turning to `CSc1ccc(C2CC(c3cccc([N+](=O)[O-])c3)=NN2c2ccccc2)cc1` (stereo not drawn), the Activity came to 0%.

For the molecule `CSc1ccc(C2CC(c3ccc(F)cc3)=NN2c2ccccc2)cc1` (stereo not drawn), the Activity is 0%.

Another assay has as its system Aspergillus flavus. The assay is described as follows: Antifungal activity against Aspergillus flavus NCIM 594 assessed as fungal growth inhibition at 2 mg/ml by microdilution method. Format: functional.
In the case of `COc1cccc(C2=NN(c3ccccc3)C(c3ccc(SC)cc3)C2)c1` (stereo not drawn), the inhibition at 2000 µg/mL came to 51.5%.

With `CSc1ccc(C2CC(c3ccccc3Cl)=NN2c2ccccc2)cc1` (stereo not drawn), the inhibition at 2000 µg/mL came out at 88.2%.

Consider `CSc1ccc(C2CC(c3cccc([N+](=O)[O-])c3)=NN2c2ccccc2)cc1` (stereo not drawn), for which the inhibition at 2000 µg/mL came out at 19%.

For the molecule `CSc1ccc(C2CC(c3ccc(F)cc3)=NN2c2ccccc2)cc1` (stereo not drawn), the inhibition at 2000 µg/mL worked out at 94.8%.

By MIC is commonly meant the smallest concentration in the dilution series that meets the test's criterion for growth inhibition. Usually inhibition stands for the percentage by which the read-out fell short of the control.

Values taken from ChEMBL document CHEMBL1158580, “Novel 1,3,5-triphenyl-2-pyrazolines as anti-infective agents” (2010).
